Measured values taken from patent publication EP4775582A1, “MACROCYCLIC COMPOUND AND ANTIBODY-DRUG CONJUGATE THEREOF” (Genfleet Therapeutics (Shanghai) Inc., priority 2023, dated 2025).
≈ marks a conversion by molar mass, not a printed value. Where two headings read alike, the source gives them in different places.

Tests used:
[1] = Solubility experiment (HPLC, external standard); type: physicochemical; details: 37 °C, 24 h; for solubility at 24 h: pH 7.4, pH 7.4 medium
Procedure: This experiment was intended to determine the solubility of the compounds in media at different pH values. The materials used in the experiment included: a pH 1.2 medium, a pH 4.5 medium, a pH 7.4 medium, and a diluent (acetonitrile/water = 50/50). 1. The preparation methods for media are as follows:
One centrifuge tube (containing about 2 mg of the test sample) was taken, 1 mL of DMSO was added to completely dissolve the test sample, and the mixture was marked as stock-1. 0.2 mL of stock-1 was transferred into a 10 mL volumetric flask, and then the 50:50 (acetonitrile/water) solution was added to bring the volume to the mark, so as to give a control solution.
Additionally, centrifuge tubes each containing about 1 mg of the test sample were taken, 1 mL of the corresponding medium solution was then added, and the tubes were shaken on a 37 °C water bath shaker for 24 h. After centrifugation for 3 times (centrifugation time: 10 min, rotation speed: 12000 rpm), 0.2 mL of the supernatants were taken, 0.8 mL of the diluent (acetonitrile/water = 50/50) was added to each tube, and the mixtures were vortexed and mixed well to give solubility samples.
The solubility samples described above and the control solution were sequentially analyzed by high performance liquid chromatography. The chromatographic conditions are as follows:
The actual concentration of the compound in each solubility sample was calculated according to an external standard method. Concentration (μg/mL) = (ASample × CControl × DSample)/(AControl)∗1000; [formula] Asample: the peak area of the target peak in the sample solution; Ccontrol: the concentration (mg/mL) of the control solution; Dsample: the dilution factor of the sample solution; Acontrol: the peak area of the target peak in the control solution.

H441 p-ERK = assay: Cell p-ERK assay (HTRF), NCI-H441 cells; type: cell-based, human; details: Homo sapiens; NCI-H441 cells (KRAS G12V), 3 h incubation
Summary of the method: (§1)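 AsPC-1 (10000/well) or NCI-H441 (20000/well) cells were seeded overnight and then exposed to compound for 3 h at 37 °C. Lysates were probed for ERK phospho-T202/Y204 by HTRF with a 4-hour antibody incubation. IC50 values came from four-parameter fits of inhibition against log concentration.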

AsPC-1 p-ERK = assay: Cell p-ERK assay (HTRF), AsPC-1 cells; type: cell-based, human; details: Homo sapiens
Summary of the method: as §1

KRAS WT-cRAF = KRAS WT-cRAF (Homo sapiens, UniProt P01116+P62937); assay: Assay for binding of KRAS to cRAF (HTRF, with Cyclophilin A), KRAS WT; details: KRAS WT-cRAF binding assay(nM), GPPNP-KRAS WT, IC50 values
Chain of KRAS WT-cRAF (P01116 1-188 isoform P01116-2): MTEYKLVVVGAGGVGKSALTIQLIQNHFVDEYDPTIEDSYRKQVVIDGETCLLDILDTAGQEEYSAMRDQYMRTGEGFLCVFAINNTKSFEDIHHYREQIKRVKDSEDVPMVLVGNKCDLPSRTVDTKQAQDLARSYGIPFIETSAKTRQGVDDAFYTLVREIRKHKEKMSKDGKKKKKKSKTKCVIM
Chain of KRAS WT-cRAF (P62937 whole entry): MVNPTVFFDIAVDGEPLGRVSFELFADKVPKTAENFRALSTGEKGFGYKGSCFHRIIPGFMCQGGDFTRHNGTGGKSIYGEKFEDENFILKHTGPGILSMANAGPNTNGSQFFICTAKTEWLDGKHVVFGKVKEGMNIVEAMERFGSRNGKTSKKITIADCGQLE
Procedure: (§3) The plate was centrifuged at 1000 rpm for 1 min and then incubated in the thermostatic incubator at 20 °C for 30 min. […] The plate was centrifuged at 1000 rpm for 1 min and then incubated in the thermostatic incubator at 20 °C for 60 min. […] The working solution was added to the aforementioned assay plate at 5 µL/well. The plate was centrifuged at 1000 rpm for 1 min and then incubated in the thermostatic incubator at 20 °C for 60 min.

KRAS G12V-cRAF = KRAS G12V-cRAF (Homo sapiens, UniProt P01116+P62937, G12V); assay: Assay for binding of KRAS to cRAF (HTRF, with Cyclophilin A), KRAS G12V; details: KRAS G12V-cRAF binding assay(nM), GPPNP-KRAS G12V, IC50 values
Chain of KRAS G12V-cRAF (P01116 1-188 isoform P01116-2 G12V): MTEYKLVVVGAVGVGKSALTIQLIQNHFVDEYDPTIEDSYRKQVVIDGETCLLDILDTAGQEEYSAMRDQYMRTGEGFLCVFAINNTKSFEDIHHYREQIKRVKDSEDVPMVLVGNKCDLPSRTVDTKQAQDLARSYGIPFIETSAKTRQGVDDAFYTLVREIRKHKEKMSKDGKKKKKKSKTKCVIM
Chain of KRAS G12V-cRAF (P62937 whole entry): as the sequence (P62937 whole entry) above
Procedure: as §3

NCI-H441 cells = assay: 3D cell proliferation assay (CellTiter Glo-3D), NCI-H441; type: cell-based, human; details: Homo sapiens, 120 h, NCI-H441 cells (KRAS G12V), 2% FBS, 5 days, read-out: H441 AP IC50
Summary of the method: (§2)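 Cells seeded at 800 per well (AsPC-1, NCI-H441) in 2% FBS medium and incubated overnight at 37 °C, 5% CO2. Compounds added next day from 10× stock, then 5 days' further culture. Viability read by CellTiter-Glo luminescence; IC50 from four-parameter fit of inhibition versus log concentration.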

AsPC-1 cells = assay: 3D cell proliferation assay (CellTiter Glo-3D), AsPC-1; type: cell-based, human; details: Homo sapiens, ASPC1, 120 h
Summary of the method: as §2

[2] = ASPC1, 3 h, read-out: AsPC-1 p-ERK IC50(nM)
[3] = AsPC-1 cells (KRAS G12D), 3D, 2% FBS, 5 days, read-out: AsPC-1 AP IC50
[4] = ASPC1, AsPC-1 cells (KRAS G12D), 3 h incubation, read-out: AsPC-1 p-ERK IC50

Compound	solubility at 24 h ([1]; ph 7.4 medium)	IC50 (H441 p-ERK)	IC50 (AsPC-1 p-ERK; [2])	solubility at 24 h ([1]; pH 7.4 medium)	IC50 (KRAS WT-cRAF)	IC50 (KRAS G12V-cRAF)	IC50 (NCI-H441 cells)	IC50 (AsPC-1 cells; [3])	IC50 (AsPC-1 p-ERK; [4])	IC50 (AsPC-1 cells; read-out: AsPC-1 AP IC50(nM))	Solubility at pH 7.4 (µg/mL) ([1]; pH 7.4 medium, 1440 min)
CCn1c(-c2cc(C#CCN3CCS(=O)(=O)CC3)cnc2[C@H](C)OC)c2c3cc(ccc31)-c1csc(n1)C[C@H](NC(=O)[C@@H](N)C1CCC1)C(=O)N1CCC[C@H](N1)C(=O)OCC(C)(C)C2 (atropisomer, axis not shown; (Ra)) [Compound Z16, (2S)-2-amino-2-cyclobutyl-N-((6^3S,4S,Z)-(Ra)-1^2-(5-(3-(1,1-dioxidothiomorpholino)prop-1-yn-1-yl)-2-((S)-1-methoxyethyl)pyridin-3-yl)-1^1-ethyl-10,10-dimethyl-5,7-dioxo-6^1,6^2,6^3,6^4,6^5,6^6-hexahydro-1^1H-8-oxa-2(4,2)-thiazola-1(5,3)-indola-6(1,3)-pyridazinacycloundecaphane-4-yl)acetamide]	15 µg/mL (≈ 16.4 µM)	1.14 nM	1.67 nM	–	–	–	–	–	–	–	–
CCn1c(-c2cc(C#CCN3CCS(=O)(=O)CC3)cnc2C(C)OC)c2c3cc(ccc31)-c1csc(n1)CC(NC(=O)C1C3CNCC31)C(=O)N1CCCC(N1)C(=O)OCC(C)(C)C2 (atropisomer, axis not shown; (Ra)) [Compound Z18, (1R,5S,6r)-N-((6^3S,4S,Z)-(Ra)-1^2-(5-(3-(1,1-dioxidothiomorpholino)prop-1-yn-1-yl)-2-((S)-1-methoxyethyl)pyridin-3-yl)-1^1-ethyl-10,10-dimethyl-5,7-dioxo-6^1,6^2,6^3,6^4,6^5,6^6-hexahydro-1^1H-8-oxa-2(4,2)-thiazola-1(5,3)-indola-6(1,3)-pyridazinacycloundecaphane-4-yl)-3-azabicyclo[3.1.0]hexane-6-carboxamide]	–	–	–	22.4 µg/mL (≈ 24.6 µM)	31 nM	16.5 nM	–	–	–	–	–
CCn1c(-c2cc(C#CCN3CCC(C(=O)NCCO)CC3)cnc2[C@H](C)OC)c2c3cc(ccc31)-c1csc(n1)C[C@H](NC(=O)[C@H]1[C@@H]3COC[C@@H]31)C(=O)N1CCC[C@H](N1)C(=O)OCC(C)(C)C2 (atropisomer, axis not shown; (Ra)) [Compound Z21, 1-(3-(5-((6^3S,4S,Z)-4-((1R,5S,6r)-3-oxabicyclo[3.1.0]hexane-6-carboxamido)-1^1-ethyl-10,10-dimethyl-5,7-dioxo-6^1,6^2,6^3,6^4,6^5,6^6-hexahydro-1^1H-8-oxa-2(4,2)-thiazola-1(5,3)-indola-6(1,3)-pyridazinacycloundecaphane-1^2-yl)-6-(Ra)-((S)-1-methoxyethyl)pyridin-3-yl)prop-2-yn-1-yl)-N-(2-hydroxyethyl)piperidine-4-carboxamide]	9.71 µg/mL (≈ 10.2 µM)	0.51 nM	–	–	–	–	0.41 nM	1.11 nM	1.68 nM	–	–
CO[C@@H](C)c1ncc(C#CCN2CCS(=O)(=O)CC2)cc1-c1c2c3cc(ccc3n1CCCO)-c1csc(n1)C[C@H](NC(=O)[C@H]1[C@@H]3COC[C@@H]31)C(=O)N1CCC[C@H](N1)C(=O)OCC(C)(C)C2 (atropisomer, axis not shown; (Ra)) [Compound Z24-1, (1R,5S,6r)-N-((6^3S,4S,Z)-1^2-(5-(3-(1,1-dioxidothiomorpholino)prop-1-yn-1-yl)-(Ra)-2-((S)-1-methoxyethyl)-pyridin-3-yl)-1^1-(3-hydroxypropyl)-10,10-dimethyl-5,7-dioxo-6^1,6^2,6^3,6^4,6^5,6^6-hexahydro-1^1H-8-oxa-2(4,2)-thiazola-1(5,3)-indola-6(1,3)-pyridazinacycloundecaphane-4-yl)-3-oxabicyclo[3.1.0]hexane-6-carboxamide]	12.3 µg/mL (≈ 13.1 µM)	3.76 nM	2.64 nM	–	–	–	1.77 nM	–	–	1.73 nM	–
CCn1c(-c2cc(C#CCN3CCS(=N)(=O)CC3)cnc2[C@H](C)OC)c2c3cc(ccc31)-c1csc(n1)C[C@H](NC(=O)[C@H]1[C@@H]3COC[C@@H]31)C(=O)N1CCC[C@H](N1)C(=O)OCC(C)(C)C2 (atropisomer, axis not shown; (Ra)) [Compound Z27]	20.8 µg/mL (≈ 22.8 µM)	0.64 nM	0.51 nM	–	–	–	0.44 nM	–	–	0.78 nM	–
CCn1c(-c2cc(C#CCN3CCC(C#N)(CO)CC3)c[n+]([O-])c2[C@H](C)OC)c2c3cc(ccc31)-c1csc(n1)C[C@H](NC(=O)[C@H]1[C@H](C)[C@@H]1C)C(=O)N1CCC[C@H](N1)C(=O)OCC(C)(C)C2 (atropisomer, axis not shown; (Ra)) [Compound Z45-1, 5-(3-(4-cyano-4-(hydroxymethyl)piperidin-1-yl)prop-1-yn-1-yl)-(Ra)-3-((6^3S,4S,Z)-4-((1r,2R,3S)-2,3-dimethylcyclopropane-1-carboxamido)-1^1-ethyl-10,10-dimethyl-5,7-dioxo-6^1,6^2,6^3,6^4,6^5,6^6-hexahydro-1^1H-8-oxa-2(4,2)-thiazola-1(5,3)-indola-6(1,3)-pyridazinacycloundecaphane-1^2-yl)-2-((S)-1-methoxyethyl)pyridine 1-oxide]	5.01 µg/mL (≈ 5.45 µM)	0.6 nM	–	–	–	–	0.53 nM	0.12 nM	0.28 nM	–	–
COCCn1c(-c2cc(C#CCN3CCN(C(=O)CO)CC3)cnc2[C@H](C)OC)c2c3cc(ccc31)-c1csc(n1)C[C@H](NC(=O)[C@H]1[C@H](C)[C@@H]1C)C(=O)N1CCC[C@H](N1)C(=O)OCC(C)(C)C2 (atropisomer, axis not shown; (Ra)) [Compound Z63-1, (2R,3S)-N-((6^3S,4S,Z)-1^2-(5-(3-(4-(2-hydroxyacetyl)piperazin-1-yl)prop-1-yn-1-yl)-(Ra)-2-((S)-1-methoxyethyl)pyridin-3-yl)-1'-(2-methoxyethyl)-10,10-dimethyl-5,7-dioxo-6^1,6^2,6^3,6^4,6^5,6^6-hexahydro-1^1H-8-oxa-2(4,2)-thiazola-1(5,3)-indola-6(1,3)-pyridazinacycloundecaphane-4-yl)-2,3-dimethylcyclopropane-1-carboxamide]	–	0.55 nM	0.61 nM	–	–	–	0.32 nM	–	–	0.36 nM	7.53 µg/mL
CCn1c(-c2cc(OCCN3CCC(C#N)(CN)CC3)c[n+]([O-])c2[C@H](C)OC)c2c3cc(ccc31)-c1csc(n1)C[C@H](NC(=O)[C@H]1[C@H](C)[C@@H]1C)C(=O)N1CCC[C@H](N1)C(=O)OCC(C)(C)C2 (atropisomer, axis not shown; (Ra)) [Compound Z73, 5-(2-(4-(aminomethyl)-4-cyanopiperidin-1-yl)ethoxy)-(Ra)-3-((6^3S,4S,Z)-4-((1r,2R,3S)-2,3-dimethylcyclopropane-1-carboxamido)-1^1-ethyl-10,10-dimethyl-5,7-dioxo-6^1,6^2,6^3,6^4,6^5,6^6-hexahydro-1^1H-8-oxa-2(4,2)-thiazola-1(5,3)-indola-6(1,3)-pyridazinacycloundecaphane-1^2-yl)-2-((S)-1-methoxyethyl)pyridine 1-oxide]	96.6 µg/mL (≈ 104 µM)	3.84 nM	–	–	–	–	2.48 nM	2.5 nM	3.19 nM	–	–
